Laboratory results from patent US12662491B2 (Redona Therapeutics, Inc., priority 2020, dated 2026).
Where a name gives a salt, the structure may show the parent alone. Read-outs that look alike come from different tables or passages of the source.

Biological target: T1, Zcchc11 enzyme (Homo sapiens, UniProt Q5TAX3)
T1 construct: made in house; host or cells: HEK293 cells (Zcchc11); E. coli Rosetta II (LIN28A)
T1 sequence (Q5TAX3 212-1420): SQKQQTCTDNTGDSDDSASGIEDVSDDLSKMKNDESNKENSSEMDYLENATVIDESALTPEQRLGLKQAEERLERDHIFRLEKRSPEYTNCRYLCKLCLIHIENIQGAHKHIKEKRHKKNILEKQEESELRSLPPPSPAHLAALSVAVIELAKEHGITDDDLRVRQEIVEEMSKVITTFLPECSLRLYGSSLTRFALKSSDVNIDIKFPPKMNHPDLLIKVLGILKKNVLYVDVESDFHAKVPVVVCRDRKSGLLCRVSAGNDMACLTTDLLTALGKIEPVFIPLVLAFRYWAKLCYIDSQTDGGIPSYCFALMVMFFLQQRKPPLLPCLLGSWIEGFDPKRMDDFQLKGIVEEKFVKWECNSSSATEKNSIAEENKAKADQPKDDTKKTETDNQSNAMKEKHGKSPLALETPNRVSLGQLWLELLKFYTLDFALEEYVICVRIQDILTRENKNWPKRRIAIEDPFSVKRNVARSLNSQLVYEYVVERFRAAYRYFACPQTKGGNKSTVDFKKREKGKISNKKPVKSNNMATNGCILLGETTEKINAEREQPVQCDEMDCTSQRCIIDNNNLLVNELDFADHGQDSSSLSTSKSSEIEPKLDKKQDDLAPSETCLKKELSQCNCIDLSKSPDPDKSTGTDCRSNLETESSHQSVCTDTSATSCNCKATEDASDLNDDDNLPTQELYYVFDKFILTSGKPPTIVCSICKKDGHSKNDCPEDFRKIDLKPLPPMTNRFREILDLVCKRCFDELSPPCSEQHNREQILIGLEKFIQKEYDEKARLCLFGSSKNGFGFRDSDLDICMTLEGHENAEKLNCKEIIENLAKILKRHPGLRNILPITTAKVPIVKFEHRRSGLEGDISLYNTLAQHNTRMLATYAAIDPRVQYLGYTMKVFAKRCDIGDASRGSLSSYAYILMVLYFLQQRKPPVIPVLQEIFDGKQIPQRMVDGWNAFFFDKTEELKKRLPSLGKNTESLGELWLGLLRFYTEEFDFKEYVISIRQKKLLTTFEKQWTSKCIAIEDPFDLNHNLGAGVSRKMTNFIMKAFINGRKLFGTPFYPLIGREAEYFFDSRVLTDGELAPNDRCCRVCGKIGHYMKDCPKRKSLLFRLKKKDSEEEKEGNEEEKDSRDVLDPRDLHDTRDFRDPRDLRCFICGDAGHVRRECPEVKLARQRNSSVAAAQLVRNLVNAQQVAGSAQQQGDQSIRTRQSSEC
Assay: TUTase assay (Zcchc11 assay, Lin28a-dependent polyuridylation of pre-let-7)
Format: biochemical
Conditions: read-out: Potency Lin28a-dep Z11 IC50
Outline: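 Human Zcchc11 residues 212-1420 (HEK293-expressed, MBP tag cleaved, C-terminal FLAG) at 0.2 nM, with 10 nM full-length human LIN28A and 2 nM 5′-fluorescein pre-let-7, preincubated with compound 30 min at room temperature. Reaction started with 5 uM UTP plus 4 nM 3′-rhodamine A20 quench probe; fluorescein loss read kinetically, IC50 from initial rates.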

[1] = Lin28a-dependent Zcchc11 (Z11) TUTase assay
[2] = Lin28a-dependent Zcchc11 (Z11) TUTase activity

| IC50 [1] | IC50 [2] | Structure (SMILES) |
| --- | --- | --- |
| 1000 to 10000 nM |  | CC1(n2cc(C(=O)O)c(=O)c3cc(F)c(N4CCC[C@@H]4COc4ccccn4)cc32)CCC1 [Example 363, (R)-6-fluoro-1-(1-methylcyclo-butyl)-4-oxo-7-(2-((pyridin-2-yloxy)methyl)pyrrolidin-1-yl)-1,4-dihydro-quinoline-3-carboxylic acid] |
|  | 10000 to 50000 nM | O=C(O)c1cn(-c2ccc(O)cc2F)c2c(F)c(N3CCC[C@H]3COc3ccccn3)c(F)cc2c1=O [Compound 82, (S)-6,8-difluoro-1-(2-fluoro-4-hydroxy-phenyl)-4-oxo-7-(2-((pyridin-2-yloxy)methyl)pyrrolidin-1-yl)-1,4-dihydro-quinoline-3-carboxylic acid] |
| ≤ 1000 nM |  | O=C(O)c1cn(-c2c[nH]cn2)c2cc(N3CCC[C@@H]3COc3ncccc3Cl)c(Cl)cc2c1=O [Example 565, (R)-6-chloro-7-(2-(((3-chloropyridin-2-yl)oxy)methyl)pyrrolidin-1-yl)-1-(1H-imidazol-4-yl)-4-oxo-1,4-dihydroquinoline-3-carboxylic acid] |
| 1000 to 10000 nM |  | CC(c1ccccc1)n1cc(C(=O)O)c(=O)c2cc(Cl)c(N3CCC[C@@H]3COc3ncccc3Cl)cc21 (stereo partly drawn) [Example 583, 6-chloro-7-((R)-2-(((3-chloropyridin-2-yl)oxy)methyl)pyrrolidin-1-yl)-4-oxo-1-(1-phentylethyl)-1,4-dihydroquinoline-3-carboxylic acid] |
|  | ≤ 1000 nM | Cn1cc(Cn2cc(C(=O)O)c(=O)c3cc(Cl)c(N4CCC[C@@H]4COc4ncccc4Cl)cc32)cn1 [Compound 252, 6-chloro-7-[(2R)-2-[[(3-chloropyridin-2-yl)oxy]methyl]pyrrolidin-1-yl]-1-[(1-methyl-pyrazol-4-yl)methyl]-4-oxoquinoline-3-carboxylic acid] |
| ≤ 1000 nM |  | Cn1cnc(-n2cc(C(=O)O)c(=O)c3cc(Cl)c(N4CCC[C@@H]4COc4ncccc4Cl)cc32)c1 [Example 566, (R)-6-chloro-7-(2-(((3-chloropyridin-2-yl)oxy)methyl)pyrrolidin-1-yl)-1-(1-methyl-1H-imidazol-4-yl)-4-oxo-1,4-dihydroquinoline-3-carboxylic acid] |

Further lines, the compound ahead of its results:

| Structure (SMILES) | IC50 [1] | IC50 [2] |
| --- | --- | --- |
| COc1ccc(Cl)c(OC[C@H]2C[C@H](NC(C)=O)CN2c2cc3c(cc2Cl)c(=O)c(C(=O)O)cn3-c2ccc(N3CC(N(C)C)C3)nc2)n1 [Example 637, 6-chloro-7-[(2R)-2-{[(3-chloro-6-methoxypyridin-2-yl)oxy]methyl}-4-acetamido-pyrrolidin-1-yl]-1-{6-[3-(dimethylamino)azetidin-1-yl]pyridin-3-yl}-4-oxo-1,4-dihydroquinoline-3-carboxylic acid] | ≤ 1000 nM |  |
| CNCCOc1ccc(-n2cc(C(=O)O)c(=O)c3cc(Cl)c(N4CCC[C@@H]4COc4ncccc4Cl)cc32)cn1 [Example 480, (R)-6-chloro-7-(2-(((3-chloropyridin-2-yl)oxy)methyl)pyrrolidin-1-yl)-1-(6-(2-(methyl-amino)ethoxy)pyridin-3-yl)-4-oxo-1,4-dihydroquinoline-3-carboxylic acid hydrochloride] | ≤ 1000 nM |  |
| COc1ccc(F)c(OC[C@H]2C[C@H]3C[C@H]3N2c2cc3c(cc2Cl)c(=O)c(C(=O)O)cn3-c2ccnc(N)c2)n1 [Compound 342, 1-(2-Aminopyridin-4-yl)-6-chloro-7-[(1R,3R,5R)-3-{[(3-fluoro-6-methoxy-pyridin-2-yl)oxy]methyl}-2-azabicyclo [3.1.0]hexan-2-yl]-4-oxoquinoline-3-carboxylic acid] |  | ≤ 1000 nM |
| COc1ccc(Cl)c(OC[C@H]2C[C@H]3C[C@H]3N2c2cc3c(cc2F)c(=O)c(C(=O)O)cn3-c2ccnc(N)c2)n1 [Compound 199, 1-(2-aminopyridin-4-yl)-7-((1R,3R,5R)-3-(((3-chloro-6-methoxy-pyridin-2-yl)oxy)methyl)-2-azabicyclo [3.1.0]hexan-2-yl)-6-fluoro-4-oxo-1,4-dihydro-quinoline-3-carboxylic acid] |  | ≤ 1000 nM |
| O=C(O)c1cn(-c2ccc(C3(O)CNC3)nc2)c2cc(N3CCC[C@@H]3COc3ncccc3Cl)c(Cl)cc2c1=O [Example 611, (R)-6-chloro-7-(2-(((3-chloropyridin-2-yl)oxy)methyl)pyrrolidin-1-yl)-1-(6-(3-hydroxyazetidin-3-yl)pyridin-3-yl)-4-oxo-1,4-dihydroquinoline-3-carboxylic acid] | ≤ 1000 nM |  |
| O=C(O)c1cn(-c2ccc3[nH]ncc3n2)c2cc(N3CCC[C@@H]3COc3ncccc3Cl)c(Cl)cc2c1=O [Example 486, 6-chloro-7-[(2R)-2-{[(3-chloropyridin-2-yl)oxy]methyl}pyrrolidin-1-yl]-4-oxo-1-{1H-pyrazolo[4,3-b]pyridin-5-yl}-1,4-dihydroquinoline-3-carboxylic acid] | ≤ 1000 nM |  |
| O=C(O)c1cn2c3cc(c(F)cc3c1=O)N1CCC[C@@H]1COc1ncccc1OCCOc1ccc-2cc1 (racemic) [Compound 312, rac-(R)-26-fluoro-24-oxo-21,24-dihydro-5,7,10-trioxa-2(1,7)-quinolina-6(2,3)-pyridina-3(1,2)-pyrrolidina-1(1,4)-benzenacyclo-decaphane-23-carboxylic acid formic acid] |  | > 50000 nM |
| O=C(O)c1cn(-c2cnc(CO)cn2)c2cc(N3CCC[C@@H]3COc3ncccc3Cl)c(Cl)cc2c1=O [Example 411, (R)-6-chloro-7-(2-(((3-chloropyridin-2-yl)oxy)methyl)pyrrolidin-1-yl)-1-(5-(hydroxy-methyl)pyrazin-2-yl)-4-oxo-1,4-dihydroquinoline-3-carboxylic acid] | ≤ 1000 nM |  |
| CN(C)C1CN(c2ccc(-n3cc(C(=O)O)c(=O)c4ccc(N5C(=O)CCCC5COc5ccccn5)cc43)cn2)C1 (centres unmarked) [Compound 323, 1-[6-[3-(Dimethyl-amino)azetidin-1-yl]pyridin-3-yl]-4-oxo-7-[2-oxo-6-[(pyridin-2-yloxy)methyl]piperidin-1-yl]quinoline-3-carboxylic acid] |  | > 50000 nM |
| Cc1cccnc1OC[C@H]1CCCN1c1cc2c(cc1Cl)c(=O)c(C(=O)O)cn2-c1ccc(O)cc1 [Compound 104, (R)-6-chloro-1-(4-hydroxy-phenyl)-7-(2-(((3-methyl-pyridin-2-yl)oxy)methyl)pyrrolidin-1-yl)-4-oxo-1,4-dihydro-quinoline-3-carboxylic acid] |  | ≤ 1000 nM |
| O=C(O)c1cn(-c2ccc(N3CCC3=O)nc2)c2nc(N3CCC[C@@H]3COc3ncccc3Cl)c(Cl)cc2c1=O [Example 531, (R)-6-chloro-7-(2-(((3-chloropyridin-2-yl)oxy)methyl)pyrrolidin-1-yl)-4-oxo-1-(6-(2-oxoazetidin-1-yl)pyridin-3-yl)-1,4-dihydro-1,8-naphthyridine-3-carboxylic acid] | ≤ 1000 nM |  |
| COc1ccc(Cl)c(OC[C@H]2C[C@H](c3cccnc3)CN2c2cc3c(cc2Cl)c(=O)c(C(=O)O)cn3-c2ccc(N3CC(N(C)C)C3)nc2)n1 [Compound 348, 6-chloro-7-((2R,4R)-2-(((3-chloro-6-methoxy-pyridin-2-yl)oxy)methyl)-4-(pyridin-3-yl)pyrrolidin-1-yl)-1-(6-(3-(dimethyl-amino)azetidin-1-yl)pyridin-3-yl)-4-oxo-1,4-dihydro-quinoline-3-carboxylic acid] |  | ≤ 1000 nM |
| CN(C)CCOc1ccc(-n2cc(C(=O)O)c(=O)c3cc(Cl)c(N4CCC[C@@H]4COc4ncccc4Cl)cc32)cn1 [Example 418, (R)-6-chloro-7-(2-(((3-chloropyridin-2-yl)oxy)methyl)pyrrolidin-1-yl)-1-(6-(2-(dimethylamino)ethoxy)pyridin-3-yl)-4-oxo-1,4-dihydroquinoline-3-carboxylic acid] | ≤ 1000 nM |  |
| O=C(O)c1cn(-c2ccc(N3CC(N4CCC4)C3)nc2)c2cc(N3CCC[C@@H]3COc3ncccc3Cl)c(Cl)cc2c1=O [Example 507, (R)-1-(6-([1,3′-biazetidin]-1′-yl)pyridin-3-yl)-6-chloro-7-(2-(((3-chloropyridin-2-yl)oxy)methyl)pyrrolidin-1-yl)-4-oxo-1,4-dihydroquinoline-3-carboxylic acid] | ≤ 1000 nM |  |
